Measurements reported in paper PMC6658140 (ACS catalysis, 2019).

How the values were obtained:
[1] = molecular target: TropB (Talaromyces stipitatus, UniProt B8M9J8); assay: change in absorbance at […] nm; format: binding
[2] = molecular target: TropB (Talaromyces stipitatus, UniProt B8M9J8, R206Q); assay: change in absorbance at […] nm; format: binding
TropB (Talaromyces stipitatus, UniProt B8M9J8, R206Q), sequence (B8M9J8 whole entry R206Q): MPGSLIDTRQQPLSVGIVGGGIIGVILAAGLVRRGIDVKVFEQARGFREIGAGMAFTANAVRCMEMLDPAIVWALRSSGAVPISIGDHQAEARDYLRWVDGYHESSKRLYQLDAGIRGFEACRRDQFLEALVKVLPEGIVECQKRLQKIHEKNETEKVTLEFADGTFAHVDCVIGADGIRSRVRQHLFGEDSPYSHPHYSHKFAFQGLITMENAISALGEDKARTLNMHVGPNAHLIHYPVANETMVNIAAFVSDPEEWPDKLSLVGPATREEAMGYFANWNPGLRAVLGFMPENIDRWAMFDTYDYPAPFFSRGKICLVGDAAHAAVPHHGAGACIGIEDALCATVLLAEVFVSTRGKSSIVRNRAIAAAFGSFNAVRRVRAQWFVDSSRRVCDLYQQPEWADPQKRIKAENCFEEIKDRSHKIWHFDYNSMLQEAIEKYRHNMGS

TropB (Talaromyces stipitatus, UniProt B8M9J8), sequence (B8M9J8 whole entry): as the sequence (B8M9J8 whole entry R206Q) above, with Q206R counted along it

Kd [1]: 21 ± 2 µM | Kd [2]: 32 ± 4 µM
Structure (SMILES): Cc1cc(O)c(C)c(O)c1C=O [compound 1, 3-methylorcinaldehyde]
